Results taken from patent publication US20070128669A1, “Serum-free expansion of cells in culture” (Institute for Chemical Genomics, priority 2005, published 2007).

Key:
CBP/β-catenin complex = target: T1, CBP/β-catenin complex (Mus musculus, UniProt P45481); test: Co-immunoprecipitation of β-catenin with CBP in P19 cells; type: cell-based; details: Wnt3a, 10 μM, 24 hours
T1 construct: endogenous in cells; host or cells: P19 cells (nuclear fraction)
Procedure: (§1) Co-immunoprecipitation of β-catenin with CBP or p300 in P19 cells. Co-immunoprecipitation was performed as described in (27). Briefly, P19 cells were treated with 10 μM ICG-001 or 10 μM IQ-1 (control DMSO was 0.025%) for 24 hours, after which they were washed and lysed […]. Nuclear fraction was isolated and precleared with antibodies to CBP(A-22) or p300(N-15). β-catenin was detected using a mouse monoclonal antibody (Becton Dickinson) at a dilution of 1:5000.

Mouse D3 ESCs = test: Long term expansion of ESCs without MEF feeders or LIF; type: cell-based
Procedure: FIG. 1. […] FIG. 1A, Structure of IQ-1. FIG. 1B, IQ-1 dose dependently maintains alkaline phosphatase activity. FIG. 1C, IQ-1, dose dependently, maintains SSEA-1 expression. SSEA-1 expression was analyzed 7 days after addition of IQ-1. FIG. 1D, IQ-1 enabled ESCs to proliferate in the undifferentiated state for at least 65 days, without MEF feeders or LIF. ESCs, in media supplemented with 4 μg/ml IQ-1, were passaged 2-3 times every week at 1×10^5-1×10^6 cells per 6 cm dish and counted. All error bars represent mean±SD.
(§2) Cell culture. ESCs, D3ES (ATCC CRL-1934) were maintained on Mitomycin C treated MEFs in mouse ESC medium containing DMEM (Invitrogen) supplemented with 15% FBS (Invitrogen), 0.1 mM MEM nonessential amino acids (Invitrogen), 0.1 mM 2-mercaptoethanol (Sigma), 2 mM L-glutamine (Invitrogen) and 1,000 U/ml LIF (CHEMICON). To remove MEFs, cells were collected by trypsinization and plated on gelatin-coated culture dishes for 20 min. Non-adherent cells consisting mainly of ESCs were replated on gelatin-coated culture dishes again. Non-adherent cells were used for further experiments. P19 cells were cultured according to conditions recommended by the ATCC. Cells were incubated at 37° C. in a 5% CO2 incubator. Purified Wnt3a was purchased (R&D Systems).
IQ-1 allowed for long term expansion of ESCs in culture without MEFs and without the addition of exogenous LIF. […]

Murine ESCs (D3 ES) [1] = test: Alkaline phosphatase activity of ESCs (compound screen); type: cell-based, mouse; details: media containing 15% FCS, without exogenous LIF
Procedure: as §2
Compound Screens. For the small molecule screen, alkaline phosphatase activity of ESCs was determined. ESCs were plated into 96-well tissue culture plates (Falcon) at a density of 316-1,000 cells per well in ESC medium without LIF. Compounds were added at a final concentration of 4 μg/ml. Cells were treated with compounds for 7 days and test cell populations were washed with PBS and 100 μl of p-nitrophenyl phosphate solution (MOSS Inc.) was added. The absorbance at 405 nm was measured by spectrophotometer (Spectramax, Molecular Devices).

ESCs = test: Embryoid body formation and differentiation of long term cultured ESCs; type: cell-based, mouse
Procedure: FIG. 5. […] FIG. 5A, long term cultured ESCs were induced to form embryoid bodies in suspension cultures for 3 days. ESCs cultured in media in the presence of Wnt3A and IQ-1 (4 μg/ml) for 48 days were able to form embryoid bodies (Left). ESCs lose their ability to form embryoid bodies after 3 days of culturing in the absence IQ-1 (Right). FIG. 5B, IQ-1 treated ESCs derived embryoid bodies were cultured (adherence culture) for 7-14 days to induce further differentiation. […] FIG. 5C, model depicting the proposed mechanism of action of IQ-1.
Immunocytochemistry and Antibodies. Cells were fixed for 20 min with 4% paraformaldehyde in PBS. Immunostaining was carried out using standard protocols. Primary antibodies were used at the following dilutions: anti α-fetoprotein mouse monoclonal (R&D systems, 10 ug/ml), anti-Actin, Smooth muscle Ab-1 mouse monoclonal (LAB VISION, 1:1), anti-GATA4 mouse monoclonal (SANTA CRUZ, 1:100), anti-MAP (microtubule associated protein)2 mouse monoclonal (Chemicon, 1:200), βIII-tubulin mouse monoclonal (Chemicon, 1:200), anti-Oligodendrocyte mouse monoclonal (Chemicon, 1:1,000). Secondary antibodies were Alexa Fluor 488 or 594 goat anti-mouse IgG (H+L)(Invitrogen, 1:200). Cells were imaged using an Olympus IX 70 microscope with ×40-200 magnification.

P19 cells = test: Real-time RT-PCR of stem cell maintenance genes in P19 cells; type: cell-based; details: Wnt3a and IQ-1 vs Wnt3a+DMSO, from the control gene β-actin
Procedure: Real-time RT-PCR. Total RNA was isolated and reverse-transcribed using SuperScript III (Invitrogen). Real-time RT-PCR (Sybr Green; BioRad) was performed using with the gene-specific primers: […]
In certain experiments, 2 μg of extracted total RNA was reverse-transcribed using SuperScript III RT-PCR system (Invitrogen) according to the manufacturer's protocol. 1 μl of cDNA was amplified by PCR with one or more of the gene-specific primers of SEQ ID NOs:5-18 using optimized PCR cycles to obtain amplified reactions in the linear range.
In Table 1, above, the effects of IQ-1 treatment on genes associates with stem cell maintenance are shown, as measured by RT-PCR. The values are represented as ΔΔCT from the control gene β-actin.

Murine ESCs (D3 ES) [2] = test: SSEA-1 expression of ESCs by flow cytometry; type: cell-based, mouse; details: 7 days after addition of IQ-1
Procedure: Flow Cytometry. Analysis of SSEA-1 expression of ESCs was performed by flow cytometry according to Zandstra et al. (35). The test cell population was washed in ice cold Hanks balanced salt solution (Invitrogen) containing 2% FCS(HF) and resuspended for 10 min in HF containing anti-mouse CD16/CD32 monoclonal antibody at 1 μg/100 μl (Pharmingen) to block nonspecific binding. Blocked cells were then incubated at 1×10^7 cells/ml for 40 min on ice with anti-SSEA-1 (Kyowa Medex) followed by FITC-Goat anti Mouse IgM antibody (ZYMED). Cells to be analyzed for their SSEA-1 expression were then washed twice in HF with 2 μg/ml propidium iodide (Dojindo) added into the final wash. The cells were then resuspended in HF for analysis on a FACS Calibur (Becton Dickinson).

p300/β-catenin complex = test: Co-immunoprecipitation of β-catenin with p300 in P19 cells; type: cell-based; details: Wnt3a, 10 μM, 24 hours
Procedure: as §1

T1 sequence (P45481 2-2441 limits assumed, one chain of several): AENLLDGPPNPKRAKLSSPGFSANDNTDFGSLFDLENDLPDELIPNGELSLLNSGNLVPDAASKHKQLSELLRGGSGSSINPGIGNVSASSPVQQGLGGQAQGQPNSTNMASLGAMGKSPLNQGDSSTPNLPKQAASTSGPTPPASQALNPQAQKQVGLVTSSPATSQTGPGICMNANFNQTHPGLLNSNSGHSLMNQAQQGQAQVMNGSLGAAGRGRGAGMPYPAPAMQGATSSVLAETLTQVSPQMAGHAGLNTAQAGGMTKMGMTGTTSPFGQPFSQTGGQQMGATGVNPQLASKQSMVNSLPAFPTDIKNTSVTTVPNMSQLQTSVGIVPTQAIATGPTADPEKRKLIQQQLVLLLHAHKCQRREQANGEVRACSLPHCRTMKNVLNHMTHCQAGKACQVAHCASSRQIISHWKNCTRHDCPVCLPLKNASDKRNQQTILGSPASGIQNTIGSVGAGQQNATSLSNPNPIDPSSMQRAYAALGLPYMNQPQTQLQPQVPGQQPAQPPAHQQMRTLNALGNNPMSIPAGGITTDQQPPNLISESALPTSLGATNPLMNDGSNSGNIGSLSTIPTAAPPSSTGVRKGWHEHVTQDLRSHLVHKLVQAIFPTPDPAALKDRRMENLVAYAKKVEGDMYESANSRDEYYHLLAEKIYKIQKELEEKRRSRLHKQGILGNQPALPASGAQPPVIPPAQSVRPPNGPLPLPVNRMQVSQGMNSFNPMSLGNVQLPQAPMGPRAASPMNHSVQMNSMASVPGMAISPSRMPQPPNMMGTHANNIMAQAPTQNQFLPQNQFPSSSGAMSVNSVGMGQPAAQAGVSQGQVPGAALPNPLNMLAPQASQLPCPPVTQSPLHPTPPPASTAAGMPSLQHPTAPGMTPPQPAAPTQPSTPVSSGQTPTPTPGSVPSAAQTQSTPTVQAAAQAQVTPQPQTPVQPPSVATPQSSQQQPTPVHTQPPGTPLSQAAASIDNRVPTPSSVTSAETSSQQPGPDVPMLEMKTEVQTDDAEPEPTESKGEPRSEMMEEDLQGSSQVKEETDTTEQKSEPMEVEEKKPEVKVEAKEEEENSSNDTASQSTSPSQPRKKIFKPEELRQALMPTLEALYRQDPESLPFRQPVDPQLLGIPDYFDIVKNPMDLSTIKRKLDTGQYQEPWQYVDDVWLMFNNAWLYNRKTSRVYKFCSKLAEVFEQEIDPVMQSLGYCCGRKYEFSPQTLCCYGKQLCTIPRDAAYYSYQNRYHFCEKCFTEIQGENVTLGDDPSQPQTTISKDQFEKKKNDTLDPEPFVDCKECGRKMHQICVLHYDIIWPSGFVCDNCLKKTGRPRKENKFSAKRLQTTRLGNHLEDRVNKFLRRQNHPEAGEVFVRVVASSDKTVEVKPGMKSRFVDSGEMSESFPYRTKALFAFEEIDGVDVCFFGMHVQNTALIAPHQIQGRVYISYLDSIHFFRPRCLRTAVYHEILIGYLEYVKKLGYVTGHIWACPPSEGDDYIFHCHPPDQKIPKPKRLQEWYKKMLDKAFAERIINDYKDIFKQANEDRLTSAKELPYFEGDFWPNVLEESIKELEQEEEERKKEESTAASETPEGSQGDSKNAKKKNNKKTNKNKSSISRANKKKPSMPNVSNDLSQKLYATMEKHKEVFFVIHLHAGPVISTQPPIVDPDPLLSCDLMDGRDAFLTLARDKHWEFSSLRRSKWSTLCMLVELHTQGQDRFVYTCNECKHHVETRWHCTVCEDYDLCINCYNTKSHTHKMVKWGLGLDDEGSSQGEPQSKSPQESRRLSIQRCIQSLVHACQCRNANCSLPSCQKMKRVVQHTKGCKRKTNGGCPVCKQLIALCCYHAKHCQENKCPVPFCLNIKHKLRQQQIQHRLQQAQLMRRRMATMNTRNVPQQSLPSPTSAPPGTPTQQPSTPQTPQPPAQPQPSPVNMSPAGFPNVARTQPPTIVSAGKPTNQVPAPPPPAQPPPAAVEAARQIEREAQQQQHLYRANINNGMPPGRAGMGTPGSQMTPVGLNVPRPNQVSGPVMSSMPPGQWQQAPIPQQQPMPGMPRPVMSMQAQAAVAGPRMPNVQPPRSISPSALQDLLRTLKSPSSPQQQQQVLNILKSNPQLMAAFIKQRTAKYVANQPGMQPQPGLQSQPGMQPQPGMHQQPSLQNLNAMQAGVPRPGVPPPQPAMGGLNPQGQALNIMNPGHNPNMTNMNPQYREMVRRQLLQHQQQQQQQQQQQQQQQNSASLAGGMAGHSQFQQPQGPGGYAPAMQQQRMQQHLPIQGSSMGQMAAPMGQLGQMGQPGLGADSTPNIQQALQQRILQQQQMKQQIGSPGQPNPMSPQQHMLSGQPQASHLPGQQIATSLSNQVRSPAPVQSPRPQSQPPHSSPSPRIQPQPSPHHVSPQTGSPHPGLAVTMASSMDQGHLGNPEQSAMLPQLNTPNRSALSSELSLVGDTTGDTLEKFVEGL

## CC(=O)c1ccc(NN=C(C(N)=O)C2=NC(C)(C)Cc3ccccc32)cc1 [IQ-1]
CBP/β-catenin complex
  relative amount of β-catenin associated with CBP: dramatic increase
Mouse D3 ESCs; 4 μg/ml IQ-1, without MEF feeders or LIF
  time ESCs proliferate in the undifferentiated state: at least 65 days
Mouse D3 ESCs; 15% FCS plus 4 μg/ml IQ-1, 65 days, without MEFs or LIF
  ESC proliferation rate: ~2 log increase every ten days
Murine ESCs (D3 ES) [1]
  Alkaline Phosphatase (AP) activity: dose dependently increased AP activity
ESCs; IQ-1 (4 μg/ml) and Wnt3a, after day 48
  pluripotency: embryoid body formation and differentiation to three germ layers: maintained the pluripotency of ESCs
ESCs; removal of IQ-1
  time to loss of pluripotency after removal of IQ-1: ≤ 3 days
P19 cells
  ΔΔCT MDR-1: 1.69
  ΔΔCT Oct4: 0.39
  ΔΔCT Sox-2: 4.31
  ΔΔCT c-myc: −2.01
Murine ESCs (D3 ES) [2]
  SSEA-1 expression: enhanced expression
p300/β-catenin complex
  p300/β-catenin interaction: at the expense of the p300/β-catenin complex
